Results reported in US20190119282A1, “IMIDAZOPYRIDAZINES USEFUL AS INHIBITORS OF THE PAR-2 SIGNALING PATHWAY” (Vertex Pharmaceuticals Incorporated, priority 2013, published 2019).

How the values were obtained:
[1] = system: UTP-stimulated Ca2+ response in HT-29 cells; assay: Ca FLIPR TETRA assay, ANTAGONIST mode, stimulation with 0.6 μM UTP; format: cell-based, human; settings: HT-29 cells
In short: (§1)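 Antagonist-mode FLIPR Tetra Ca2+ readout: after 30 min r.t. compound pre-incubation, HT-29 cells are challenged with trypsin (3.1 U/mL final), SLIGKV (8 μM), thrombin (1 U/mL) or UTP (0.6 μM). Cells were plated overnight in 1% FBS medium and dye-loaded with Calcium 5; an initial read checks compound agonism.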

[2] = system: Thrombin-stimulated Ca2+ response in HT-29 cells; assay: Ca FLIPR TETRA assay, ANTAGONIST mode, stimulation with 1 U/mL Thrombin; format: cell-based, human; settings: HT-29 cells
In short: as §1

[3] = target: T1, PAR2 (HT-29 cells, SLIGKV activation) (Homo sapiens, UniProt P55085); assay: Ca FLIPR TETRA assay, ANTAGONIST mode, stimulation with 8 μM SLIGKV; format: cell-based; settings: for IC50: HT-29 cells
T1 construct: host or cells: HT-29 cells
T1 sequence (P55085 26-397): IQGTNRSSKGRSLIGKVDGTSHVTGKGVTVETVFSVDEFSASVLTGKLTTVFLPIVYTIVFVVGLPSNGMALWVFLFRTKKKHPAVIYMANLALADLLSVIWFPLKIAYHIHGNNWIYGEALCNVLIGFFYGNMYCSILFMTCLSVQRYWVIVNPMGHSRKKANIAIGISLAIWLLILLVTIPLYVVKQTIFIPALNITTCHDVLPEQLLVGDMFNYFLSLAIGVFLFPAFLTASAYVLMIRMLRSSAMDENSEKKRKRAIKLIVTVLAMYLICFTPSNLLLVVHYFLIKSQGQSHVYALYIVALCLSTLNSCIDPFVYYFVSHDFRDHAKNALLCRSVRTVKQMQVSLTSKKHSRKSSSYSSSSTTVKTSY
In short: as §1

[4] = target: T2, PAR2 (HT-29 cells, trypsin activation) (Homo sapiens, UniProt P55085); assay: Ca FLIPR TETRA assay, ANTAGONIST mode, stimulation with 3.1 U/mL trypsin; format: cell-based; settings: HT-29 cells
T2 construct: host or cells: HT-29 cells
T2 sequence (P55085 26-397): T1 sequence (P55085 26-397)
In short: as §1

[5] = Homo sapiens, stimulation with 0.6 μM UTP
[6] = Homo sapiens, stimulation with 1 U/mL Thrombin
[7] = stimulation with 3.1 U/mL trypsin
[8] = Homo sapiens, antagonist mode, stimulation with 0.6 μM UTP
[9] = Homo sapiens, antagonist mode, stimulation with 1 U/mL Thrombin
[10] = antagonist mode, stimulation with 8 μM SLIGKV
[11] = antagonist mode, stimulation with 3.1 U/mL trypsin

Compound | IC50 [1, 5] [nM] | IC50 [2, 6] [nM] | IC50 ([3]; stimulation with 8 μM SLIGKV) [nM] | IC50 [4, 7] [nM] | IC50 [1, 8] [nM] | IC50 [2, 9] [nM] | IC50 [3, 10] [nM] | IC50 [4, 11] [nM] | also measured
CCS(=O)(=O)N1CCN(C(=O)c2cn3nc(-c4ccc(F)cc4)cc(C(F)(F)F)c3n2)CC1 [Compound I-57] | > 50000 | > 50000 | 590 | 48000 | – | – | – | – | –
CCc1cc(-c2ccc(F)cc2)nn2cc(C(=O)N3CCN(C(=O)[C@H](O)CC4CC4)CC3(C)C)nc12 [Compound I-173] | 23000 | 20000 | 8 | 13 | – | – | – | – | –
CC(C)c1cc(-c2ccc(F)cc2)nn2cc(C(=O)N3CCN(C(=O)C(O)C(C)C)[C@@H](C)C3)nc12 (stereo partly shown) [Compound I-116] | 22000 | 19000 | 12 | 72 | – | – | – | – | –
CC(C)(C)c1cc(-c2ccc(F)cc2)nn2cc(C(=O)N3CCNC(=O)C34CCCC4)nc12 [Compound I-462, 6-(8-(tert-butyl)-6-(4-fluorophenyl)imidazo[1,2-b]pyridazine-2-carbonyl)-6,9-diazaspiro[4.5]decan-10-one] | – | – | – | – | > 1000 | > 1000 | 2.2 | 3.7 | –
Cc1ncc(C(=O)N2CCN(C(=O)c3cn4nc(-c5ccc(Cl)cc5)cc(C(C)(C)C)c4n3)C(C)(C)C2)[nH]1 [Compound I-441] | – | – | – | – | > 1000 | > 1000 | 0.5 | 0.6 | –
CC(C)c1cc(-c2ccc(F)c(C3CC3)c2)nn2cc(C(=O)N3CCNC(=O)C3(C)C)nc12 [Compound I-476] | – | – | – | – | > 1000 | > 1000 | 660 | 965 | –
CC(C)c1cc(-c2ccc(C(F)(F)F)cc2)nn2cc(C(=O)N3CCN(C(=O)c4ccccn4)CC3(C)C)nc12 [Compound I-281] | – | – | – | – | > 1000 | > 1000 | 2.5 | 3.6 | –
COC(=O)C1CC(C(=O)N2CCN(C(=O)c3cn4nc(-c5ccc(Cl)cc5)cc(C(C)C)c4n3)C(C)(C)C2)C1 (stereo not shown) [Compound I-545] | – | – | – | – | – | – | 1.1 | 1.9 | IC50 ([1]; antagonist mode, stimulation with 0.6 μM UTP): > 1000 nM; IC50 ([2]; antagonist mode, stimulation with 1 U/mL Thrombin): > 1000 nM
Cc1ccc(-c2cc(C(C)C)c3nc(C(=O)N4CCN(C(=O)C(C)(C)O)CC4(C)C)cn3n2)cc1F [Compound I-251] | – | – | – | – | > 1000 | > 1000 | 5.8 | 16.6 | –
CC(C)c1cc(-c2ccc(F)cc2)nn2cc(C(=O)N3CCN(C(=O)CC(C)(C)O)[C@@H](C)C3)nc12 [Compound I-131] | 32000 | 33000 | 67 | 650 | – | – | – | – | –
CC(C)c1cc(-c2ccc(F)cc2)nn2cc(C(=O)N3CCN(C(=O)C(C)(C)NC(=O)OCc4ccccc4)[C@@H](C)C3)nc12 [Compound I-151] | > 50000 | > 50000 | 63 | 160 | – | – | – | – | –
CC(O)CC(=O)N1CCN(C(=O)c2cn3nc(-c4ccc(F)cc4)cc(C(C)C)c3n2)C[C@@H]1C (stereo partly shown) [Compound I-123] | > 50000 | > 50000 | 200 | 340 | – | – | – | – | –
Cc1nnc(C(=O)N2CCN(C(=O)c3cn4nc(-c5ccc(C(F)(F)F)cc5)cc(C(C)C)c4n3)C(C)(C)C2)o1 [Compound I-280] | – | – | – | – | > 1000 | > 1000 | 9.6 | 6 | –
CC(C)c1cc(-c2ccc(F)cc2)nn2cc(C(=O)N3CCN(C(=O)c4ccnnc4)CC3(C)C)nc12 [Compound I-306] | – | – | – | – | > 1000 | > 1000 | 68 | 185 | –
CC(C)c1cc(-c2ccc(F)cc2)nn2cc(C(=O)N3CCN(C(=O)[C@H](O)CC(C)(C)C)[C@@H](C)C3)nc12 [Compound I-97] | > 5000 | > 5000 | 0.7 | 0.6 | – | – | – | – | –
CC(C)(C)c1cc(-c2ccc(F)c(Cl)c2)nn2cc(C(=O)N3CCN(C(=O)c4ccccn4)CC3(C)C)nc12 [Compound I-458] | – | – | – | – | > 1000 | > 1000 | 1.3 | 2.1 | –
Cc1cc(-c2cc(C(C)C)c3nc(C(=O)N4CCN(C(=O)c5ccccn5)CC4(C)C)cn3n2)ccc1F [Compound I-379] | – | – | – | – | > 1000 | > 1000 | 9.4 | 10.5 | –

Compound | IC50 [1, 5] [nM] | IC50 [2, 6] [nM] | IC50 ([3]; stimulation with 8 μM SLIGKV) [nM] | IC50 [4, 7] [nM] | IC50 [1, 8] [nM] | IC50 [2, 9] [nM] | IC50 [3, 10] [nM] | IC50 [4, 11] [nM] | also measured
Cc1ccc(-c2cc(C(C)(C)C)c3nc(C(=O)N4CCN(c5cn[nH]c5)C(=O)C4(C)C)cn3n2)cc1F [Compound I-365] | – | – | – | – | > 1000 | > 1000 | 1.1 | 1.5 | –
CC(C)(C)c1cc(-c2ccc(F)c(Cl)c2)nn2cc(C(=O)N3CCN(C(=O)c4ccn[nH]4)CC3(C)C)nc12 [Compound I-459] | – | – | – | – | > 1000 | > 1000 | 1 | 1.5 | –
O=C(OCc1ccccc1)N1CCN(C(=O)c2cn3nc(-c4ccc(F)cc4)cc(C(F)(F)F)c3n2)CC1 [Compound I-53] | > 50000 | > 50000 | – | 21000 | – | – | – | – | SLIGKV % @ concentration ([3]; @ 5.6 (μM)): 55% @ 5.6
Cc1cc(-c2cc(C(C)(C)C)c3nc(C(=O)N4CCN(c5c[nH]cn5)C(=O)C4(C)C)cn3n2)ccc1F [Compound I-418] | – | – | – | – | > 1000 | > 1000 | 7.6 | 7.1 | –
CC(C)c1cc(-c2ccc(F)cc2)nn2cc(C(=O)N3CCOC(=O)C3(C)C)nc12 [Compound I-511] | – | – | – | – | > 1000 | > 1000 | 23 | 87 | –
CC(C)c1cc(-c2ccc(C(F)(F)F)c(F)c2)nn2cc(C(=O)N3CCN(C(=O)[C@H]4C[C@](O)(C(F)(F)F)C4)CC3(C)C)nc12 [Compound I-276] | – | – | – | – | > 1000 | > 1000 | 0.4 | 0.4 | –
CC(C)(C)c1cc(-c2ccc(F)cc2)nn2cc(C(=O)N3CN(Cc4ccccc4)C(=O)C3(C)C)nc12 [Compound I-565] | – | – | – | – | – | – | – | – | IC50 ([1]; Homo sapiens, antagonist mode, 0.6 μM UTP): > 1000 nM; IC50 ([2]; Homo sapiens, antagonist mode, 1 U/mL Thrombin): > 1000 nM; IC50 ([3]; antagonist mode, 8 μM SLIGKV): 43 nM; IC50 ([4]; antagonist mode, 3.1 U/mL trypsin): 42 nM
C[C@H]1CN(C(=O)c2cn3nc(-c4ccc(F)cc4)cc(C(F)(F)F)c3n2)CCN1C(=O)[C@@H](CC1CCCCC1)NC(=O)OC(C)(C)C [Compound I-15, tert-Butyl N-[(1R)-1-(cyclohexylmethyl)-2-[(2S)-4-[6-(4-fluorophenyl)-8-(trifluoromethyl)imidazo[1,2-b]pyridazine-2-carbonyl]-2-methyl-piperazin-1-yl]-2-oxo-ethyl]carbamate] | > 50000 | > 50000 | 47 | 58 | – | – | – | – | –
CC(C)c1cc(-c2ccc(F)cc2)nn2cc(C(=O)N3CCN(C(=O)CCn4cccn4)[C@@H](C)C3)nc12 [Compound I-135] | 17000 | 16000 | 22 | 220 | – | – | – | – | –
Cc1ccc(-c2cc(C(C)(C)C)c3nc(C(=O)N4CCN(C(=O)c5ccn[nH]5)CC4(C)C)cn3n2)cc1 [Compound I-394] | – | – | – | – | > 1000 | > 1000 | 0.9 | 1.1 | –
CC(C)CC(=O)N1CCN(C(=O)c2cn3nc(-c4ccc(F)cc4)cc(C(C)C)c3n2)C[C@@H]1C [Compound I-122] | 10000 | 10000 | 7 | 23 | – | – | – | – | –
CC(C)c1cc(-c2ccc(F)cc2)nn2cc(C(=O)N3CCN(C(=O)c4cn[nH]c4)CC3(C)C)nc12 [Compound I-327] | – | – | – | – | > 1000 | > 1000 | 5.6 | 5.9 | –
COC1CC(C(=O)N2CCN(C(=O)c3cn4nc(-c5ccc(F)c(Cl)c5)cc(C(C)C)c4n3)C(C)(C)C2)C1 (stereo not shown) [Compound I-499] | – | – | – | – | > 1000 | > 1000 | 8.3 | 9.6 | –
CC(C)c1cc(-c2ccc(F)cc2)nn2cc(C(=O)N3CCN(C(=O)C4(N)CCC4)[C@@H](C)C3)nc12 [Compound I-155] | 25000 | 27000 | 800 | 3500 | – | – | – | – | –
C[C@H]1CN(C(=O)c2cn3nc(-c4ccc(F)cc4)cc(C(C)(C)C)c3n2)C(C)(C)C(=O)N1 [Compound I-226] | – | – | – | – | > 1000 | > 1000 | 525 | 760 | –
Cc1nc(C(=O)N2CCN(C(=O)c3cn4nc(-c5ccc(F)c(C)c5)cc(C(C)(C)C)c4n3)C(C)(C)C2)c[nH]1 [Compound I-383] | – | – | – | – | > 1000 | > 1000 | 1.9 | 2.9 | –
CC(C)(C)c1cc(-c2ccc(C(F)(F)F)cc2)nn2cc(C(=O)N3CCN(C(=O)c4ccccn4)CC3(C)C)nc12 [Compound I-398] | – | – | – | – | > 1000 | > 1000 | 3.1 | 2.6 | –
